Mrna remaining data for 24 compounds are collected here from patent publication US20080255111A1, “Tissue Factor Production Inhibitor” (SANKYO COMPANY LIMITED, priority 2004, published 2008).

One experiment deals with tissue factor mRNA in LPS-stimulated mouse peritoneal macrophages. The experiment in a line: Assay of mouse peritoneal macrophage tissue factor mRNA. The format is cell-based. As to conditions: test compound 1 μM, 18 h, then LPS 100 ng/ml for 6 h, relative to cyclophilin mRNA, DMSO treatment = 100, read-out: Expressed Amount of Tissue Factor mRNA. The protocol: 3 ml of thioglycolate (Sigma Chemical) were administered into the abdominal cavity of male C57BL/6J mice (Charles River) followed 4 days later by intraperitoneal administration of 10 ml of phosphate-buffered saline (hereinafter PBS) containing heparin (Hishiyama Pharmaceutical) at a concentration of 5 U/ml and recovery of intraperitoneal macrophages using a syringe. After centrifuging the recovered macrophages at 1000 rpm and 4° C. for 5 minutes, the supernatant was discarded followed by suspending in RPMI 1640 medium (Gibco Laboratories) containing normal fetal bovine serum (hereinafter FBS) at a concentration of 10%. The macrophages were adjusted to a concentration of 4×10^6 cells/ml, disseminated in 1 ml aliquots in a 12-well plate, and cultured for 3 hours at 37° C. using a CO2 incubator. Subsequently, the cells were washed with PBS, and the medium was replaced with RPMI medium containing lipoprotein-deficient serum (hereinafter LPDS) (Sigma Chemical) at a concentration of 5%. Test compounds dissolved in dimethylsulfoxide (DMSO) at a concentration of 1 μM were added to make a final DMSO concentration of 0.1%, and after warming for 18 hours at 37° C., lipopolysaccharide (hereinafter LPS) (Sigma Chemical) was added to make a concentration of 100 ng/ml. The cells were recovered 6 hours later, RNA was extracted using the Rneasy Mini Kit (Qiagen), and after carrying out a reverse transcription reaction using the First-Strand cDNA Synthesis Kit (Amersham Biosciences), the expressed amounts of tissue factor mRNA and cyclophylin mRNA were measured by quantitative RT-PCR (TaqMan, Applied Biosystems 7700 Sequence Detector).
Quantitative RT-PCR for tissue factor was carried out using the aforementioned TF-1 and TF-2 as primers and TF-P as probes, while quantitative PCR for cyclophilin was carried out using the aforementioned Cyl-1 and Cyl-2 as primers and Cyl-P as probes. Both were carried out by warming for 2 minutes at 50° C. and then for 10 minutes at 95° C., followed by 40 warming cycles consisting of warming for 15 seconds at 95° C. and then for 1 minute at 60° C. The expressed amount of tissue factor mRNA was calculated as a relative value of the expressed amount of cyclophilin mRNA. The expressed amounts of tissue factor mRNA resulting from the test compounds at a concentration of 1 μM or 10 μM based on a value of 100 for the expressed amount of tissue factor mRNA in a case of treatment with DMSO at a concentration of […] are shown in Table 7.
On to `CC(C)(C)OC(=O)c1c(COc2ccc(-c3ccc(CC(=O)O)cc3[N+](=O)[O-])cc2)ccc(C(F)(F)F)c1O` [Reference Example 22, (4′-{[2-(tert-Butoxycarbonyl)-3-hydroxy-4-(trifluoromethyl)benzyl]oxy}-2-nitro-1,1′-biphenyl-4-yl)acetic acid], for which the mrna remaining at 1 µM is 54%.
Regarding `CC(C)(C)OC(=O)c1c(COc2ccc(-c3ccc(CC(=O)O)cc3Cl)cc2)ccc(C(F)(F)F)c1O` [Reference Example 26, (4′-{[2-(tert-Butoxycarbonyl)-3-hydroxy-4-(trifluoromethyl)benzyl]oxy}-2-chloro-1,1′-biphenyl-4-yl)acetic acid], the mrna remaining at 1 µM is 42.3%.
For `O=c1c2cc(OCCO)ccc2nc(Cc2ccccc2)n1-c1ccc(C(O)(C(F)(F)F)C(F)(F)F)cc1` [Compound E, 2-Benzyl-6-(2-hydroxyethoxy)-3-[4-[2,2,2-trifluoro-1-hydroxy-1-(trifluoromethyl)ethyl]phenyl]-4(3H)-quinazolinone], the mrna remaining at 1 µM came to 37.7%.
`Cc1cc(CC(=O)O)ccc1-c1ccc(OCc2ccc(C(F)(F)F)c(O)c2C(=O)OC(C)(C)C)cc1` [Reference Example 24, (4′-{[2-(tert-Butoxycarbonyl)-3-hydroxy-4-(trifluoromethyl)benzyl]oxy}-2-methyl-1,1′-biphenyl-4-yl)acetic acid]: the mrna remaining at 1 µM came out at 61.8%.
Regarding `CC(C)(C)OC(=O)c1c(COc2ccc(-c3ccc(CC(=O)O)cc3C(F)(F)F)cc2)ccc(C(F)(F)F)c1O` [Reference Example 27, (4′-{[2-(tert-Butoxycarbonyl)-3-hydroxy-4-(trifluoromethyl)benzyl]oxy}-2-trifluoromethyl-1,1′-biphenyl-4-yl)acetic acid], the mrna remaining at 1 µM is 63.5%.
With `Cc1c(CC(=O)O)cccc1-c1ccc(OCc2ccc(C(F)(F)F)c(O)c2C(=O)OC(C)(C)C)cc1` [Reference Example 16, (4′-{[2-(tert-Butoxycarbonyl)-3-hydroxy-4-(trifluoromethyl)benzyl]oxy}-2-methyl-1,1′-biphenyl-3-yl)acetic acid], the mrna remaining at 1 µM stood at 65.4%.
Same read-out and setting: the same measure for `CC(C)(C)OC(=O)n1c(COc2ccc(-c3ccc(CC(=O)O)s3)cc2)cc2ccc(F)cc21` [Reference Example 11, [5-(4-{[1-(tert-Butoxycarbonyl)-6-fluoro-1H-indol-2-yl]methoxy}phenyl)-2-thienyl]acetic acid]: 61.1%; for `CC(=O)N(C)c1ccc(OCc2cc3ccc(F)cc3n2C(=O)OC(C)(C)C)cc1` [Reference Example 3, tert-Butyl 2-({4-[acetyl(methyl)amino]phenoxy}methyl)-6-fluoro-1H-indole-1-carboxylate]: 67.9%; for `CC(C)(C)OC(=O)c1c(COc2ccc(-c3ccc(CC(=O)O)c(Cl)c3)cc2)ccc(C(F)(F)F)c1O` [Reference Example 14, (4′-{[2-(tert-Butoxycarbonyl)-3-hydroxy-4-(trifluoromethyl)benzyl]oxy}-3-chloro-1,1′-biphenyl-4-yl)acetic acid]: 61.2%.
The same measure, in the same setting: the same measure for `CC(C)(C)OC(=O)c1c(COc2ccc(-c3ccc(CC(=O)O)cc3N)cc2)ccc(C(F)(F)F)c1O` [Reference Example 30, (2-Amino-4′-{[2-(tert-butoxycarbonyl)-3-hydroxy-4-(trifluoromethyl)benzyl]oxy}-1,1′-biphenyl-4-yl)acetic acid]: 65.6%; for `COc1cc(CC(=O)O)ccc1-c1ccc(OCc2ccc(C(F)(F)F)c(O)c2C(=O)OC(C)(C)C)cc1` [Reference Example 25, (4′-{[2-(tert-Butoxycarbonyl)-3-hydroxy-4-(trifluoromethyl)benzyl]oxy}-2-methoxy-1,1′-biphenyl-4-yl)acetic acid]: 64%.
As to `CC(C)c1ccc(COc2ccc(-c3ccc(CC(=O)O)cc3)cc2)c(C(=O)OC(C)(C)C)c1O` [Reference Example 18, (4′-{[2-(tert-Butoxycarbonyl)-3-hydroxy-4-isopropylbenzyl]oxy}-1,1′-biphenyl-4-yl)acetic acid], the mrna remaining at 1 µM stood at 56.9%.
In the case of `CN(c1ccc(OCc2ccc(C(F)(F)F)c(O)c2C(=O)OC(C)(C)C)cc1)S(C)(=O)=O` [Reference Example 6, tert-Butyl 2-hydroxy-6-({4-[methyl(methylsulfonyl)amino]phenoxy}methyl)-3-(trifluoromethyl)benzoate], the mrna remaining at 1 µM turned out to be 62.8%.
On to `CN(C(=S)C1CC1)c1ccc(OCc2cc3c(F)cc(F)cc3n2C(=O)OC(C)(C)C)cc1` [Reference Example 4, tert-Butyl 2-({4-[(cyclopropylcarbonothioyl)(methyl)amino]phenoxy}methyl)-4,6-difluoro-1H-indole-1-carboxylate], for which the mrna remaining at 1 µM stood at 57.6%.
On the same count and under the same terms, for `CC(C)(C)OC(=O)c1c(COc2ccc(-c3ccc(CC(=O)O)s3)cc2)ccc(C(F)(F)F)c1O` [Reference Example 21, [5-(4-{[2-(tert-Butoxycarbonyl)-3-hydroxy-4-(trifluoromethyl)benzyl]oxy}phenyl)-2-thienyl]acetic acid] the value was 68.9%.
For the compound `CC(C)(C)OC(=O)c1c(COc2ccc(-c3ccc(CC(=O)O)c(F)c3)cc2)ccc(C(F)(F)F)c1O` [Reference Example 23, (4′-{[2-(tert-Butoxycarbonyl)-3-hydroxy-4-(trifluoromethyl)benzyl]oxy}-3-fluoro-1,1′-biphenyl-4-yl)acetic acid], the mrna remaining at 1 µM worked out at 51.6%.

The experiment is the same for the next values; noted with them: test compound 10 μM, 18 h, then LPS 100 ng/ml for 6 h, relative to cyclophilin mRNA, DMSO treatment = 100, read-out: Expressed Amount of Tissue Factor mRNA.
In the case of `CC(C)(C)OC(=O)c1c(COc2ccc(-c3ccc(C(=O)O)cc3)cc2)ccc(C(F)(F)F)c1O` [Reference Example 34, 4′-{[2-(tert-Butoxycarbonyl)-3-hydroxy-4-(trifluoromethyl)benzyl]oxy}-1,1′-biphenyl-4-carboxylic acid], the mrna remaining at 10 µM was found to be 39%.
Same read-out and setting: the same measure for `CN(C)c1cc(CC(=O)O)ccc1-c1ccc(OCc2ccc(C(F)(F)F)c(O)c2C(=O)OC(C)(C)C)cc1` [Reference Example 31, [4′-{[2-(tert-Butoxycarbonyl)-3-hydroxy-4-(trifluoromethyl)benzyl]oxy}-2-(dimethylamino)-1,1′-biphenyl-4-yl]acetic acid]: 33.7%.
For `Cc1ccc(Cc2nc3ccc(-n4ccnc4)cc3c(=O)n2-c2ccc(C(O)(C(F)(F)F)C(F)(F)F)cc2C)cc1` [Compound G, 6-(1H-Imidazol-1-yl)-2-(4-methylbenzyl)-3-{2-methyl-4-[2,2,2-trifluoro-1-hydroxy-1-(trifluoromethyl)ethyl]phenyl}-4(3H)-quinazolinone], the mrna remaining at 10 µM was 44.7%.
Consider `CC(C)(C)OC(=O)c1c(COc2ccc(-c3cccc(S(C)(=O)=O)c3)cc2)ccc(C(F)(F)F)c1O` [Reference Example 29, tert-Butyl 2-hydroxy-6-({[3′-(methylsulfonyl)-1,1′-biphenyl-4-yl]oxy}methyl)-3-(trifluoromethyl)benzoate], for which the mrna remaining at 10 µM was found to be 88.4%.
Regarding `CC(C)c1cc(CC(=O)O)ccc1-c1ccc(OCc2ccc(C(F)(F)F)c(O)c2C(=O)OC(C)(C)C)cc1` [Reference Example 33, (4′-{[2-(tert-Butoxycarbonyl)-3-hydroxy-4-(trifluoromethyl)benzyl]oxy}-2-isopropyl-1,1′-biphenyl-4-yl)acetic acid], the mrna remaining at 10 µM was 37.2%.
Turning to `CC(C)(C)OC(=O)c1c(COc2ccc(-c3ccc(C4(C(=O)O)CC4)cc3)cc2)ccc(C(F)(F)F)c1O` [Reference Example 28, 1-(4′-{[2-(tert-Butoxycarbonyl)-3-hydroxy-4-(trifluoromethyl)benzyl]oxy}-1,1′-biphenyl-4-yl)cyclopropanecarboxylic acid], the mrna remaining at 10 µM came out at 41.7%.
Still for that read-out and setting: for `COc1cc2nc(Cc3cccc(F)c3)n(-c3cc(C(O)(C(F)(F)F)C(F)(F)F)ccc3C)c(=O)c2cc1OC` [Reference Example 2, 2-(3-Fluorobenzyl)-6,7-dimethoxy-3-{2-methyl-5-[2,2,2-trifluoro-1-hydroxy-1-(trifluoromethyl)ethyl]phenyl}-4(3H)-quinazolinone] the value was 45.2%.
Regarding `CC(C)(C)OC(=O)c1c(COc2ccc(-c3ccc(C(CO)C(=O)O)cc3)cc2)ccc(C(F)(F)F)c1O` (stereo not drawn) [Reference Example 32, 2-(4′-{[2-(tert-Butoxycarbonyl)-3-hydroxy-4-(trifluoromethyl)benzyl]oxy}-1,1′-biphenyl-4-yl)-3-hydroxypropanoic acid], the mrna remaining at 10 µM was found to be 48.5%.
